This is an account of results in patent publication US20230115945A1, “AMINOPYRIMIDINE COMPOUNDS” (TYRA BIOSCIENCES, INC., priority 2019, published 2023).

Details in all cases: 11-point 3-fold dilution, qPCR readout
In one assay the target is T1, FGFR1 (Homo sapiens, UniProt P11362).
T1 construct: made in house; host or cells: E. coli host derived from BL21, infected with T7 phage
As to the kind of experiment: Kinase binding assay (Kd), FGFR1. As to the method: (§1) Kinase-tagged T7 phage strains were prepared in an E. coli host derived from the BL21 strain. E. coli were grown to log-phase and infected with T7 phage and incubated with shaking at 32° C. until lysis. The lysates were centrifuged and filtered to remove cell debris. Streptavidin-coated magnetic beads were treated with biotinylated small molecule ligands for 30 minutes at room temperature to generate affinity resins for kinase assays. The liganded beads were blocked with excess biotin and washed with blocking buffer SeaBlock (Pierce), 1% BSA, 0.05% Tween 20, 1 mM DTT to remove unbound ligand and to reduce non-specific binding. Binding reactions were assembled by combining kinases, liganded affinity beads, and test compounds in 1× binding buffer (20% SeaBlock, 0.17×PBS, 0.05% Tween 20, 6 mM DTT).
(§2) Test compounds were prepared as 111X stocks in 100% DMSO. Kds were determined using an 11-point 3-fold compound dilution series with three DMSO control points. All compounds for Kd measurements are distributed by acoustic transfer (non-contact dispensing) in 100% DMSO. The compounds were then diluted directly into the assays such that the final concentration of DMSO was 0.9%. All reactions performed in polypropylene 384-well plate. Each was a final volume of 0.02 ml. The assay plates were incubated at room temperature with shaking for 1 hour and the affinity beads were washed with wash buffer (lx PBS, 0.05% Tween 20). The beads were then re-suspended in elution buffer (lx PBS, 0.05% Tween 20, 0.5 μM non-biotinylated affinity ligand) and incubated at room temperature with shaking for 30 minutes. The kinase concentration in the eluates was measured by qPCR.
(§3) Binding constants were calculated with a standard dose-response curve using the Hill equation: […]
(§4) The Hill Slope was set to −1. Curves were fitted using a non-linear least square fit with the Levenberg-Marquardt algorithm.

The target in the next assay is T2, FGFR3 (Homo sapiens, UniProt P22607).
T2 construct: made in house; host or cells: E. coli host derived from BL21, infected with T7 phage
T2 sequence (P22607 23-806): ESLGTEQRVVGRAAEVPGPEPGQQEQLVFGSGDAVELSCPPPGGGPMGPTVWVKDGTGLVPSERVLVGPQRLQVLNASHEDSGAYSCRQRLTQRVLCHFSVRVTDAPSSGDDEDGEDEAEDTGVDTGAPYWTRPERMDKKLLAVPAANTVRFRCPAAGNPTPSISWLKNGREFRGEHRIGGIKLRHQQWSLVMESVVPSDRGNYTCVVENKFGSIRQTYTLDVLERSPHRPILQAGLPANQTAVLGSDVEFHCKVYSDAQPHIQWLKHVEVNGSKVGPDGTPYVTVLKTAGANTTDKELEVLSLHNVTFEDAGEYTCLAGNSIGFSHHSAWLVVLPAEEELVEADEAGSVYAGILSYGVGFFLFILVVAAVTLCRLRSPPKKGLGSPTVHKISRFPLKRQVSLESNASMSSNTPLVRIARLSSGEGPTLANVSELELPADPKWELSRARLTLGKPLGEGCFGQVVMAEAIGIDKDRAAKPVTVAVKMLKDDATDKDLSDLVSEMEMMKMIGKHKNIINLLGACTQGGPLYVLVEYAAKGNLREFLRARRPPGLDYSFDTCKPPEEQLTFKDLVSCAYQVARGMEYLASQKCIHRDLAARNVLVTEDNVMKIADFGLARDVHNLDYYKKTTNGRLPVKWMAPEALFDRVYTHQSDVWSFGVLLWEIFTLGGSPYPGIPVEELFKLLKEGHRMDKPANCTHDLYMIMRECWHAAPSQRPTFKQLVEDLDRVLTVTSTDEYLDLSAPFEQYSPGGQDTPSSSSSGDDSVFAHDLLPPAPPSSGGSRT
As to the kind of experiment: Kinase binding assay (Kd), FGFR3. As to the method: as §1, §2, §3, §4

A further assay has as its target T3, FGFR3 (V555M) (Homo sapiens, UniProt P22607, V555M).
T3 construct: made in house; host or cells: E. coli host derived from BL21, infected with T7 phage
As to the kind of experiment: Kinase binding assay (Kd), FGFR3 (V555M). As to the method:
as §1, §2, §3, §4

The target of another assay is T4, FGFR2 (Homo sapiens, UniProt P21802).
T4 construct: made in house; host or cells: E. coli host derived from BL21, infected with T7 phage
T4 sequence (P21802 22-821): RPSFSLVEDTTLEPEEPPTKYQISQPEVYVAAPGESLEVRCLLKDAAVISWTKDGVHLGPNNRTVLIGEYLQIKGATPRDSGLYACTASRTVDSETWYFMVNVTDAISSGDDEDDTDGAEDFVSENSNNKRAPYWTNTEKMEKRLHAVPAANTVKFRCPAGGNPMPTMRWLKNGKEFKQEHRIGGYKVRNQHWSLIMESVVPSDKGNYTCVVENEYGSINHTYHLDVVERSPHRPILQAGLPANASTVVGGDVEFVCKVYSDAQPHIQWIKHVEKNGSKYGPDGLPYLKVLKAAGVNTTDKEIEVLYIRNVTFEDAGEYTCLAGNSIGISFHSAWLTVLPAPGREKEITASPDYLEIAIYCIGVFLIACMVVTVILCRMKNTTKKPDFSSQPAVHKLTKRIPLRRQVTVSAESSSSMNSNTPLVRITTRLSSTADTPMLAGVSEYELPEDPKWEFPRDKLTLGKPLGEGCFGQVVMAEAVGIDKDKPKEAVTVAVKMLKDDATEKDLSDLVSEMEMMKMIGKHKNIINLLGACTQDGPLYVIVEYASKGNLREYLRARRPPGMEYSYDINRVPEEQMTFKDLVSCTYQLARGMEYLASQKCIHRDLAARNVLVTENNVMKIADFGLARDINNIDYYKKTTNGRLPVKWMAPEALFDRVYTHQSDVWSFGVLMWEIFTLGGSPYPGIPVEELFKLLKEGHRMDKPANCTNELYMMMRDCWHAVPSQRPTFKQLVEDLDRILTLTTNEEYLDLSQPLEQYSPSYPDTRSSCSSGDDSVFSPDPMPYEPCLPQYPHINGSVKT
As to the kind of experiment: Kinase binding assay (Kd), FGFR2. As to the method: as §1, §2, §3, §4

The target of the next assay is T5, FGFR4 (Homo sapiens, UniProt P22455).
T5 construct: made in house; host or cells: E. coli host derived from BL21, infected with T7 phage
T5 sequence (P22455 22-802): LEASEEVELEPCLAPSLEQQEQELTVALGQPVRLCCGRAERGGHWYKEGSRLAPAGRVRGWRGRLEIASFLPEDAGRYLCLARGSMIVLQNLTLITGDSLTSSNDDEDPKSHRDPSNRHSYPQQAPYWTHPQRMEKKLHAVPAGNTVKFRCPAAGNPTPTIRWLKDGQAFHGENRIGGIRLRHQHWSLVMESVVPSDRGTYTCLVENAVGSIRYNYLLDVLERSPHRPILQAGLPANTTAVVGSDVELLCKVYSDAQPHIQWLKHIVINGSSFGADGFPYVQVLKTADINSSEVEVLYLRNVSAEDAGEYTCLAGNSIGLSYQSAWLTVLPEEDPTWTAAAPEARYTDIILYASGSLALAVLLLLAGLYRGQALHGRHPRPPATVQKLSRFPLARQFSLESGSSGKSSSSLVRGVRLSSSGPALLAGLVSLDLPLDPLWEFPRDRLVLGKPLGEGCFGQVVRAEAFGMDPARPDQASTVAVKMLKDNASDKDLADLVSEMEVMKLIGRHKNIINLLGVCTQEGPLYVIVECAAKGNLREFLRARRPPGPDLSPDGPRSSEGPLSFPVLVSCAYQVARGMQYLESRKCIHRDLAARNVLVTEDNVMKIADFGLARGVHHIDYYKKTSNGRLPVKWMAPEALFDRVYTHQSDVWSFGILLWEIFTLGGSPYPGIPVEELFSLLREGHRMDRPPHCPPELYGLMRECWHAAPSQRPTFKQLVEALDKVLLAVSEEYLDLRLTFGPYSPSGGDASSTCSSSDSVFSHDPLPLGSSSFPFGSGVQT
As to the kind of experiment: Kinase binding assay (Kd), FGFR4. As to the method:
as §1, §2, §3, §4

SMILES strings stand for the structures.

T1 sequence (P11362 22-822): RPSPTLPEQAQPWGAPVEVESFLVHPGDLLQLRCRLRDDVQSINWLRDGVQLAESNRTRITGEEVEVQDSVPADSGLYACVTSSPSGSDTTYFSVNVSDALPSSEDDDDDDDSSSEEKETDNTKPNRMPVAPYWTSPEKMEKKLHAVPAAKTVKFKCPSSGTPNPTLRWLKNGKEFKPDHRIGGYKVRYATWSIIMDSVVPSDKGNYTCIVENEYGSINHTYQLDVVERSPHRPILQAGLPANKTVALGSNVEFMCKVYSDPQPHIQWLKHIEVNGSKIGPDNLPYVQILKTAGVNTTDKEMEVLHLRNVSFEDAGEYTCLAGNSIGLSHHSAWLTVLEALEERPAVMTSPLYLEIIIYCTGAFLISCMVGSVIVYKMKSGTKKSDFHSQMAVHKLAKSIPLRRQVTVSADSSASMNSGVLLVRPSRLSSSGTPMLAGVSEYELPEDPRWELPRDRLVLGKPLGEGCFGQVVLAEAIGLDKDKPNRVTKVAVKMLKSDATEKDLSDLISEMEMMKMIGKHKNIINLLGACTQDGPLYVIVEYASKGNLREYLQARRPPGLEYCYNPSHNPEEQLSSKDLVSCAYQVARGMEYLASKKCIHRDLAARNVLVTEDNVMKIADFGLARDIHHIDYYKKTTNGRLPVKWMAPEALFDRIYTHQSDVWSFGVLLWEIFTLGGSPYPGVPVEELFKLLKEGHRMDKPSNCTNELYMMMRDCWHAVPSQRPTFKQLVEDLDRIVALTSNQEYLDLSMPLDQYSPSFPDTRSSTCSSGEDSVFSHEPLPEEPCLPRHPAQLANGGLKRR
T3 sequence (P22607 23-806 V555M): as the sequence (P22607 23-806) above, with V533M counted along it

On to `C=CC(=O)Nc1ccc2c(ccn2-c2nc(Nc3ccc(S(C)(=N)=O)cc3OC)ncc2Cl)c1` (single isomer, unassigned) [Example 88, N-[1-[5-Chloro-2-[2-methoxy-4-(methylsulfonimidoyl)-anilino]-pyrimidin-4-yl]indol-5-yl]prop-2-enamide], for which the Kd on FGFR1 was 20000 nM; on FGFR3, 8800 nM; at FGFR3 (V555M), 840 nM; at FGFR2 it was 26000 nM.
In the case of `COc1cc(N=S(C)(C)=O)ccc1Nc1ncc(Cl)c(-c2c[nH]c3ccccc23)n1` [Example 1, 5-chloro-N-[4-[[dimethyl(oxo)-λ^6-sulfanylidene]amino]-2-methoxy-phenyl]-4-(1H-indol-3-yl)pyrimidin-2-amine], the Kd on FGFR1 came out at 140 nM; on FGFR3, 170 nM; at FGFR3 (V555M), 15 nM; at FGFR4, 130 nM; on FGFR2, 370 nM.
Consider `CCOc1cc(N=S(C)(C)=O)ccc1Nc1ncc(Cl)c(-c2c[nH]c3ccccc23)n1` [Example 2, 5-Chloro-N-[4-[[dimethyl(oxo)-λ^6-sulfanylidene]amino]-2-ethoxy-phenyl]-4-(1H-indol-3-yl)pyrimidin-2-amine], for which the Kd at FGFR1 came out at 480 nM; at FGFR3, 430 nM; at FGFR3 (V555M), 53 nM; on FGFR4, 39 nM; on FGFR2, 1900 nM.
As for `CC(C)COc1cc(N=S(C)(C)=O)ccc1Nc1ncc(Cl)c(-c2c[nH]c3ccccc23)n1` [Example 4, 5-chloro-N-[4-[[dimethyl(oxo)-λ^6-sulfanylidene]amino]-2-isobutoxy-phenyl]-4-(1H-indol-3-yl)pyrimidin-2-amine], the Kd on FGFR1 was 21000 nM; at FGFR3 (V555M) it was 4100 nM; on FGFR4 it was 210 nM.
Consider `COc1c(N=S(C)(C)=O)cccc1Nc1ncc(Cl)c(-c2c[nH]c3ccccc23)n1` [Example 5, 5-chloro-N-[3-[[dimethyl(oxo)-λ^6-sulfanylidene]amino]-2-methoxy-phenyl]-4-(1H-indol-3-yl)pyrimidin-2-amine], for which the Kd on FGFR1 is 3300 nM; at FGFR3, 4300 nM; at FGFR3 (V555M), 420 nM; on FGFR4 it was 6200 nM; at FGFR2 it was 14000 nM.
On to `COc1ccc(N=S(C)(C)=O)cc1Nc1ncc(Cl)c(-c2c[nH]c3ccccc23)n1` [Example 6, 5-chloro-N-[5-[[dimethyl(oxo)-λ^6-sulfanylidene]amino]-2-methoxy-phenyl]-4-(1H-indol-3-yl)pyrimidin-2-amine], for which the Kd on FGFR1 was found to be 390 nM; at FGFR3, 1100 nM; at FGFR3 (V555M) it was 90 nM; on FGFR4 it was 2000 nM; at FGFR2, 1700 nM.
For `CS(C)(=O)=Nc1ccc(Nc2cc(-n3ccc4ccccc43)ncn2)cc1` [Example 15, N-[4-[[dimethyl(oxo)-λ^6-sulfanylidene]amino]phenyl]-6-indol-1-yl-pyrimidin-4-amine], the Kd on FGFR1 was determined as 29000 nM; on FGFR3, 18000 nM; on FGFR3 (V555M) it was 3700 nM; at FGFR2 it was 14000 nM.
Take `CS(C)(=O)=Nc1ccc(Nc2nccc(-n3ccc4ccccc43)n2)c(N)c1` [Example 18, 4-[[dimethyl(oxo)-λ^6-sulfanylidene]amino]-N1-(4-indol-1-ylpyrimidin-2-yl)benzene-1,2-diamine]: the Kd on FGFR3 is 20000 nM; at FGFR3 (V555M) it was 12000 nM; at FGFR2 it was 21000 nM.
On FGFR3 (V555M), `C=CC(=O)Nc1cc(N=S(C)(C)=O)ccc1Nc1nccc(-n2ccc3ccccc32)n1` [Example 19, N-[5-[[dimethyl(oxo)-λ^6-sulfanylidene]amino]-2-[(4-indol-1-ylpyrimidin-2-yl)amino]phenyl]prop-2-enamide] showed a Kd of 3000 nM. This lies in the single-digit micromolar range.
In the case of `CC(=O)c1cn(-c2nc(Nc3ccc(N=S(C)(C)=O)cc3)ncc2C)c2ccccc12` [Example 21, 1-[1-[2-[4-[[Dimethyl(oxo)-λ^6-sulfanylidene]amino]anilino]-5-methyl-pyrimidin-4-yl]indol-3-yl]ethanone], the affinity on FGFR3, expressed as Kd, was 27000 nM. That is a double-digit micromolar value.
